Source: patent publication US4374765A, “Mammalian collagenase inhibitors” (American Home Products Corporation, priority 1981, dated 1983)
Residues, ends and D or L forms follow the SMILES beside them.

System: collagenase
Assay: collagenase inhibition, acetyl 14C collagen hydrolysis (procedure of Sellers et al.)
Type: biochemical
Conditions: 2mM inhibitor, 35° C., 5 to 18 hours, Tris-CaCl2 pH 7.4, vs control devoid of inhibitor
Protocol: The inhibitory effect of the compounds of this invention toward collagenase was determined following the procedure of Sellers et al., Biochem. J. 167 353-360 (1977) whereby the 2mM of the inhibitor being tested is incubated at 35° C. for from 5 to 18 hours (depending upon the potency of the collagenase) with collagen and collagenase (buffered with Tris®--CaCl2; pH 7.4). The collagen is acetyl ^14 C collagen. The samples are centrifuged and an aliquot removed for assay on a scintillation counter. Because native collagen forms insoluble fibrils under the test conditions, the supernatant liquid contains radioactivity as a measure of hydrolysis. The collagenase activity in the presence of 2mM inhibitor is compared to activity in a control devoid of hinibitor and the results reported as percent inhibition of collagenase activity. Each of the compounds of this invention have been established as active collagenase inhibitors by the test procedure.

## CC(=O)NCC(=O)N[C@@H](CS)C(=O)NCC(=O)N[C@@H](CCC(=O)O)C(=O)N[C@@H](CCC(=O)O)C(N)=O [CH3 CO-Gly-L-Cys-Gly-L-Glu-L-Glu-NH2] (Ac-GCGEE-NH2)
  Percent collagenase inhibition: 80%
